From ChEMBL document CHEMBL3272267, “Synthesis and antiinflammatory and hypnotic activity of 5-alkoxy-3-(N-substituted carbamoyl)-1-phenylpyrazoles” (J Med Chem, 1977)

What was measured:
Rattus norvegicus = assay: Antiinflammatory activity in Wistar rat assessed as inhibition of carrageenan-induced hind paw edema at 100 mg/kg, po administered as gum arabic suspension 30 mins prior to carrageenin injection measured 3 hrs post-carrageenin injection; type: functional
Mus musculus = assay: Hypnotic activity in ip dosed ddN mouse assessed as loss of righting reflex administered as gum arabic suspension measured within 60 mins; type: functional
[1] = Acute toxicity in po dosed mouse; type: organism-based; details: in vivo

Compound | inhibition in vivo at 100 mg/kg (Rattus norvegicus) [%] | HD50 (Mus musculus) [mg/kg] | LD50 [1] [mg/kg]
COc1cc(C(=O)N2CCCCC2)nn1-c1ccccc1 | 28.2 |  | 
COc1cc(C(N)=O)nn1-c1ccccc1 | 34.3 |  | 
CNC(=O)c1cc(OC)n(-c2ccccc2)n1 | 57.9 |  | 
COc1cc(C(=O)N(C)C)nn1-c1ccccc1 | 47.5 | 90 | 385
CCCCNC(=O)c1cc(OC)n(-c2ccccc2)n1 | 20.6 |  | 
COc1cc(C(=O)NC(C)C)nn1-c1ccccc1 | 24.8 |  | 
COc1cc(C(=O)N2CCCC2)nn1-c1ccccc1 | 29.2 |  | 
COc1cc(C(=O)N2CCOCC2)nn1-c1ccccc1 | 73.8 |  | 
CCN(CC)CCNC(=O)c1cc(OC)n(-c2ccccc2)n1 | 54.1 |  | 
COc1cc(C(=O)N2CCN(C)CC2)nn1-c1ccccc1 | 56.8 |  | 
COc1cc(C(=O)N2CCN(CCO)CC2)nn1-c1ccccc1 | 10.3 |  | 
COc1cc(C(=O)Nc2ccccc2C(=O)O)nn1-c1ccccc1 | 24.1 |  | 
COc1cc(C(=O)Nc2cccc(C(F)(F)F)c2)nn1-c1ccccc1 | 20.9 |  | 
COc1cc(C(=O)N(C)c2ccc(C)cc2)nn1-c1ccccc1 | 22.3 |  | 
CCOc1cc(C(=O)N(C)C)nn1-c1ccccc1 | 65.8 | 26 | 330
CCOc1cc(C(=O)N2CCOCC2)nn1-c1ccccc1 | 35.4 |  | 
CCCOc1cc(C(=O)N(C)C)nn1-c1ccccc1 | 26.2 | 27 | 320
CC(C)Oc1cc(C(=O)N(C)C)nn1-c1ccccc1 | 43.9 | 49 | 525
CCCOc1cc(C(=O)N2CCOCC2)nn1-c1ccccc1 | 23.5 |  | 
CCCCOc1cc(C(N)=O)nn1-c1ccccc1 | 26.5 | 94 | 360
CCCCOc1cc(C(=O)NC)nn1-c1ccccc1 | 65 | 48 | 325
CCCCOc1cc(C(=O)NCC)nn1-c1ccccc1 | 0 | 44 | 400
CCCCOc1cc(C(=O)N(C)C)nn1-c1ccccc1 | 18.7 | 33 | 460
C=CCNC(=O)c1cc(OCCCC)n(-c2ccccc2)n1 | 4.4 |  | 

Compound | inhibition in vivo at 100 mg/kg (Rattus norvegicus) [%] | HD50 (Mus musculus) [mg/kg] | LD50 [1] [mg/kg]
CCCCOc1cc(C(=O)NCCC)nn1-c1ccccc1 | 51.2 | 39 | 650
CCCCOc1cc(C(=O)NCCO)nn1-c1ccccc1 | 61.2 |  | 
CCCCNC(=O)c1cc(OCCCC)n(-c2ccccc2)n1 | 43.3 | 70 | 370
CCCCOc1cc(C(=O)N(CC)CC)nn1-c1ccccc1 | 44.1 |  | 
CCCCOc1cc(C(=O)NC(C)C)nn1-c1ccccc1 | 15.8 |  | 
CCCCOc1cc(C(=O)N2CCCC2)nn1-c1ccccc1 | 17.6 |  | 
CCCCOc1cc(C(=O)N2CCCCC2)nn1-c1ccccc1 | 15.6 |  | 
CCCCOc1cc(C(=O)N2CCOCC2)nn1-c1ccccc1 | 32.9 |  | 
CCCCOc1cc(C(=O)NCCN(CC)CC)nn1-c1ccccc1 | 23.6 |  | 
CCCCOc1cc(C(=O)NCCCN(C)C)nn1-c1ccccc1 | 29.8 |  | 
CCCCOc1cc(C(=O)N2CCN(C)CC2)nn1-c1ccccc1 | 32.3 |  | 
CCCCOc1cc(C(=O)N2CCN(CCO)CC2)nn1-c1ccccc1 | 41.3 |  | 
CCCCOc1cc(C(=O)Nc2ccccc2C(=O)O)nn1-c1ccccc1 | 0 |  | 
CCCCOc1cc(C(=O)N2CCN(C(=O)c3cc(OCCCC)n(-c4ccccc4)n3)CC2)nn1-c1ccccc1 | 0 |  | 
CCCCCOc1cc(C(=O)N(C)C)nn1-c1ccccc1 | 20 | 63 | 420
CC(C)CCOc1cc(C(=O)N(C)C)nn1-c1ccccc1 | 25.3 | 47 | 350
CCCCOc1cc(C(=O)N(C)CCN(C)C)nn1-c1ccccc1 | 28.2 |  | 
CCCCOc1cc(C(=O)N(C)CCN(CC)CC)nn1-c1ccccc1 | 29.5 |  | 
CCCCOc1cc(C(=O)N2CCN(CCOC(C)=O)CC2)nn1-c1ccccc1 | 43.9 |  | 
CCCCOc1cc(C(=O)N2CCN(CCOC(=O)CC)CC2)nn1-c1ccccc1 | 0 |  | 
CCCCOc1cc(C(=O)N2CCN(CCOC(=O)c3ccccc3)CC2)nn1-c1ccccc1 | 5.9 |  | 
Cc1c(N(C)C)c(=O)n(-c2ccccc2)n1C [AMINOPYRINE] | 66 |  | 
CN1C(=O)NC(=O)C(C)(C2=CCCCC2)C1=O (stereo not drawn) [HEXOBARBITAL] |  | 91 | 745
CCCCC1C(=O)N(c2ccccc2)N(c2ccccc2)C1=O [PHENYLBUTAZONE] | 54.5 |  | 
